Measurements as given in publication PMC9466619, “Anti-cancer and immunomodulatory evaluation of new nicotinamide derivatives as potential VEGFR-2 inhibitors and apoptosis inducers: in vitro and in silico studies” (Journal of Enzyme Inhibition and Medicinal Chemistry, 2022).

What was measured:
human VEGFR-2 = biological target: T1, human VEGFR-2 (Homo sapiens, UniProt P35968); assay: In vitro VEGFR-2 enzyme inhibition assay (Human VEGFR-2 ELISA kit); type: biochemical
T1 construct: VEGFR-2 in HepG2 cell line; endogenous in cells; host or cells: HepG2
T1 sequence (P35968 20-1356): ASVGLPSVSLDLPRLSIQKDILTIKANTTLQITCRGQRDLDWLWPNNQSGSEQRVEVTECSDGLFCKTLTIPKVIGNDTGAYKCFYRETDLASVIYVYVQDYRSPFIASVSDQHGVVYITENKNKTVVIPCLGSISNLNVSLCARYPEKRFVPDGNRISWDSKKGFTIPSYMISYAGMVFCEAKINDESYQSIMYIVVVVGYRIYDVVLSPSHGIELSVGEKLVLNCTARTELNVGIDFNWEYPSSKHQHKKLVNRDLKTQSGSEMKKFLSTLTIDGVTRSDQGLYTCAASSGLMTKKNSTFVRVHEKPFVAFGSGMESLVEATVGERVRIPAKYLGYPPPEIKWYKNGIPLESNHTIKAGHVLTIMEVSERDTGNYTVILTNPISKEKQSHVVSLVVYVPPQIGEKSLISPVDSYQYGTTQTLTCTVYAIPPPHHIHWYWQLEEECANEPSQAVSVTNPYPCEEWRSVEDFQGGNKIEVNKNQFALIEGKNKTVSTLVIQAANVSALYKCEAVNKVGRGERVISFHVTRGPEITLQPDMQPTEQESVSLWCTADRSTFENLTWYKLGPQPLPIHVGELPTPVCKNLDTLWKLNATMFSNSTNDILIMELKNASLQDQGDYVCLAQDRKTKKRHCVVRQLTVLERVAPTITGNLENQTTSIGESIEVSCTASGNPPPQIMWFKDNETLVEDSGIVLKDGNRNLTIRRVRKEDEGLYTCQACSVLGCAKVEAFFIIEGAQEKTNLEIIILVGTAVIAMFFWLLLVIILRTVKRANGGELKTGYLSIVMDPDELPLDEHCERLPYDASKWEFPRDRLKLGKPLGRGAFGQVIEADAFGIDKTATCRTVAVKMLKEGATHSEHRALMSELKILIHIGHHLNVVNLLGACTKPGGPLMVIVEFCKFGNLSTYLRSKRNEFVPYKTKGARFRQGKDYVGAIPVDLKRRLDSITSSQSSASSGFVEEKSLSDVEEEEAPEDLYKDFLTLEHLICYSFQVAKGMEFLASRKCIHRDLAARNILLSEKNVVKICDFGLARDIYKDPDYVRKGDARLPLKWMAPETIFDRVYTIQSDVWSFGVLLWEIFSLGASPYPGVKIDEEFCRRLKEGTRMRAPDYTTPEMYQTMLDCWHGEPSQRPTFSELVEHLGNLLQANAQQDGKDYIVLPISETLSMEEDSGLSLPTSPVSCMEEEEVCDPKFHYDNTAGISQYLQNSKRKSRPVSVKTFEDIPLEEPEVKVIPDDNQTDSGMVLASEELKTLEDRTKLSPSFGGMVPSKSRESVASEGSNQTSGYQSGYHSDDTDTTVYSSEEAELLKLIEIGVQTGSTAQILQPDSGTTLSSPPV
Protocol: (§1) 3- 4.2. Experimental of biological testing
4.2.1. In vitro anti-proliferative activity […]
The tested cell lines were purchased and dropped on the appropriate growth medium. The growth medium was supplemented with […] of streptomycin, 100 units/mL of penicillin and 10% of heat-inactivated fetal bovine serum in a humidified 5% (v/v) CO2 atmosphere at 37 ◦C. […]
(§2) 4.2.2. In vitro VEGFR-2 kinase assay
(§3) The synthesized compounds were estimated for their in vitro inhibition on human VEGFR-2 in HepG2 cell line; using ELISA kit. Firstly, a plate was used for the assay […]
nominated as a standard VEGFR-2 inhibitor. Both standard and samples were added to the wells and incubated overnight at 4 ◦C, then washed. The biotinylated antibody was supplemented and further incubated for 1 h at room temperature. The unreacted, liberated antibody was then washed; followed by addition of HRP-conjugated streptavidin and incubated for 45 min at room temperature. Wells were washed and a TMB substrate solution was added and kept at room temperature for 30 min. Finally, the stop solution was added, and the intensity of the color produced was measured at […]

HepG-2 = assay: MTT anti-proliferative assay, HepG-2; type: cell-based; details: Homo sapiens, HepG2, HepG-2 hepatocellular carcinoma cells, read-out: Cytotoxicity IC50 HepG-2
Protocol: (§4) MTT procedure[41]^,[42] was applied for the determination of the anti-proliferative activity as described in Supplementary data.
as §1
(§5) 4.2.1. In vitro anti-proliferative activity
(§6) The in vitro antiproliferative activities of the synthesized compounds were evaluated against two human tumor cell lines: hepatocellular carcinoma (HepG2) and breast cancer (MCF-7) using MTT assay protocol The commercially available […]
(§7) The tested cell lines were purchased and dropped on the appropriate growth medium. The growth medium was supplemented with […] of streptomycin, 100 units/mL of penicillin and 10% of heat-inactivated fetal bovine serum in a humidified 5% (v/v) CO2 atmosphere at 37 ◦C.
(§8) Then the cells from the two cancer cell lines were seeded at the appropriate densities into 96-well microtiter plates. After incubation for 24 h, the growth medium of each cell was treated with graded concentrations (0.1, 10, 100 and 1000 μM) of the test compounds and incubated for three days. The viability of treated cells was determined using 3-[4,5-dimethylthiazole-2-yl]- 2,5-diphenyltetrazolium bromide (MTT) technique as cells were stained with 5% MTT solution and allowed to break down the dye into colored-insoluble formazan crystals for 4 h. The formazan crystals were dissolved in acidified isopropanol for 30 min with continuous shaking at room temperature. The colorimetric assay was measured and recorded at absorbance of 570 nm. The cell viability was expressed as percentage of control and the concentration that […]
(§9) 100% viability and group treated with a mixture of toxic compounds as 0% viability.
(IC50) were determined for each compound using Graph Pad Prism version 5 software by plotting of log C against % viability. […]

HCT-116 = assay: MTT anti-proliferative assay, HCT-116; type: cell-based; details: Homo sapiens, HCT-116 colorectal cancer cells, read-out: Cytotoxicity IC50 HCT-116
Protocol: [Worded in the source for another cell line; this cell line is reported under the same test.] as §4, §1, §5, §6, §7, §8, §9
(IC50) were determined for each compound using Graph Pad Prism version 5 software by plotting of log C against % viability.
as §2, §3
nominated as a standard VEGFR-2 inhibitor. Both standard and samples were added to the wells and incubated overnight at 4 ◦C, then washed. The biotinylated antibody was supplemented and further incubated for 1 h at room temperature. The unreacted, […]

HCT-116 cells [1] = assay: Cell cycle analysis by PI staining and flow cytometry; type: cell-based, human; details: 48 h
Protocol: Numerous anti-proliferative agents produce their effect by either arresting the cell growth at a particular point of the cell cycle or the induction of apoptosis, or by a combined effect. Taking compound 7 as a representative example of the tested compounds, its effect on the cell-cycle arrest of the HCT-116 cells for 48 h was evaluated by flow cytometry assay using the untreated HCT-116 as a control.
Cell cycle analysis was performed using propidium iodide (PI) staining and flow cytometry analysis for compound 7 as described in Supplementary data[44]^,[45]. […]
5% CO2. Cells were washed twice with phosphate buffer saline, then the centrifugation of cell pellets had been completed, followed by preservation with ice-cold 70% ethanol for 15 min. Pellets were collected again and incubated with propidium iodide (PI) staining solution. After incubation for one hour at room temperature, it was analyzed by flowcytometry on an FC500 cytometer (Beckman Coulter) and the cell cycle distributions were calculated. […]

HCT-116 cells [2] = assay: Apoptosis assay, FITC-Annexin V/PI flow cytometry; type: cell-based, human; details: 15.70 μM, 48 h
Protocol: To determine whether apoptosis induction is involved in the anti-proliferative effects of the synthesised compounds, the apoptosis assay was performed for compound 7 against HCT-116 cells. The cells were incubated with either vehicle or compound 7 at a concentration of 15.70 μM for 48 h and then stained with FITC-Annexin V and propidium iodide (PI). The percentages of apoptotic HCT-116 cells were determined by flow cytometry analysis.
Flow cytometry cell apoptosis analysis was used to investigate the apoptotic effect of compound 7 as described in Supplementary data[46]^,[47]. […]
4.2.4. Flow cytometry analysis for apoptosis
Flow cytometry cell apoptosis analysis was used to investigate the apoptotic […]
AnnexinV-fluorescein isothiocyanate (Annexin V-FITC) is a protein that has high affinity to phosphatidyl serine PS, which can be detected by staining with Annexin V-(FITC) and counter staining with propidium iodide (PI). In such procedure, HepG2 cells were incubated together with the tested compound […] for 24 h. Then, the cells were centrifuged, collected by trypsin, washed with PBS two successive times, and suspended in […] of binding buffer. The double staining Annexin V-FITC […] were added to the cells and incubated in the dark for 5 min at room temperature. The stained cells were analyzed for flow cytometry using FACS caliber flow cytometer and apoptosis detection kit (BD Biosciences, San Jose, CA)

IL-6 = assay: qRT-PCR level of IL-6 in HCT-116 cells; type: cell-based, human; details: 24 h, compound 7 at 15.70 µM, compound 10 at […]
Protocol: (§10) Dexamethasone as a universal immunomodulatory drug was used as a reference molecule.
(§11) The effect of compounds 7 and 10 on the expression of TNF-α and IL-6 were determined using qRT-PCR as described in Supplementary data[48–50].
(§12) 4.2.5. Quantitative Real Time Reverse-Transcriptase PCR technique
(§13) The quantity of immunomodulatory proteins (TNF-α and IL-6) in control and compounds 7, 10 (at the IC50 concentration)-treated HepG2 cells was as sessed by qRT-PCR (reference). Total RNA from vehicle -treated control (0.01% DMSO) and […] HepG2 cells were extracted as -per the manufacturer instructi ons (RNeasy mini kit, Qiagen, Germany). After RNA extraction, cDNA was prepared using the Revert Aid First Strand cDNA Synthesis kit (Thermo Scientific, USA). Amplification of target cDNA for apoptosis markers and GAPDH [as a normalization (housekeeping) gene] was done using one-step RT-PCR SYBR® Green kit Master Mix (Bio‐Rad
(§14) Laboratories, USA) on Rotor -Gene Q real-time PCR thermal cycler instrument. cDNA (2 μl aliquots) was mixed with 1 μl of forward primer, 1 μl re verse primer, 10 μl master mixture, and the reaction volume was completed to 20 μl with nuclease -free water. All experiments were performed in tri plicates
(§15) 4- 4.3. Experimental of in silico studies

TNF-α = assay: qRT-PCR level of TNF-α in HCT-116 cells; type: cell-based, human; details: 24 h, compound 7 at 15.70 µM, compound 10 at […]
Protocol: as §10, §11, §12, §13, §14, §15

With `O=C(N/N=C/c1cccc([N+](=O)[O-])c1)c1ccc(NC(=O)c2cccnc2)cc1` [Compound 6, (E)-N-(4–(2-(3-Nitrobenzylidene)hydrazine-1-carbonyl)phenyl)nicotinamide] the IC50 (human VEGFR-2) was 0.292 µM, the IC50 (HepG-2) was 19.5 ± 0.063 µM and the IC50 (HCT-116) was 22.09 ± 0.064 µM.

For `COc1cc(/C=N/NC(=O)c2ccc(NC(=O)c3cccnc3)cc2)cc(OC)c1OC` [Compound 7, (E)-N-(4–(2-(3,4,5-Trimethoxybenzylidene)hydrazine-1-carbonyl)phenyl) nicotinamide], the “Cell cycle distribution (%) % S” value (HCT-116 cells [1]) was 26.92%, the “Cell cycle distribution (%) %G0-G1” value (HCT-116 cells [1]) was 41.92% and the “Cell cycle distribution (%) %G2-M” value (HCT-116 cells [1]) was 31.16%. The “Cell cycle distribution (%) %Pre-G1” value (HCT-116 cells [1]) was 15.74%, the IC50 (human VEGFR-2) was 0.25 µM and the IC50 (HepG-2) was 15.5 ± 0.055 µM. For the same compound, the IC50 (HCT-116) was 15.7 ± 0.058 µM, the “Apoptosis Early” value (HCT-116 cells [2]) was 2.75% and the “Apoptosis Late” value (HCT-116 cells [2]) was 11.26%. The “Apoptosis Total” value (HCT-116 cells [2]) was 15.74%, the “Increase in early-phase apoptotic cells versus control” value (HCT-116 cells [2]) was 4 fold and the “Increase in late-phase apoptotic cells versus control” value (HCT-116 cells [2]) was 6.5 folds. The Necrosis (HCT-116 cells [2]) was 1.73% and the “Total apoptosis induction versus control” value (HCT-116 cells [2]) was 5 folds.

In the case of `C/C(=N\NC(=O)c1ccccc1Cl)c1ccc(NC(=O)c2cccnc2)cc1` [Compound 10], the IC50 (human VEGFR-2) is reported as 0.145 µM.

Compound `CC(=O)Nc1ccc(C(=O)N/N=C(\C)c2ccc(NC(=O)c3cccnc3)cc2)cc1` [Compound 11, (E)-N-(4–(1-(2–(4-Acetamidobenzoyl)hydrazono)ethyl)phenyl)nicotinamide] has an IC50 (human VEGFR-2) of 0.0866 µM, an IC50 (HepG-2) of 21.6 ± 0.07 µM and an IC50 (HCT-116) of 20.17 ± 0.063 µM.

`C[C@@H]1C[C@H]2[C@@H]3CCC4=CC(=O)C=C[C@]4(C)[C@@]3(F)[C@@H](O)C[C@]2(C)[C@@]1(O)C(=O)CO` [Dexamethasone, reference compound] was tested, and the “IL-6 (% inhibition)” value (IL-6) was 93.15%, the “IL-6 (% inhibition)” value (IL-6; listed as dexamethasone) was 93.1% and the “TNF-α (% inhibition)” value (TNF-α) was 82.47%. For the same compound, the “TNF-α (% inhibition)” value (TNF-α; listed as dexamethasone) was 82.4%.

With `CNC(=O)c1cc(Oc2ccc(NC(=O)Nc3ccc(Cl)c(C(F)(F)F)c3)cc2)ccn1` [Sorafenib, reference compound] the IC50 (HepG-2) was 7.4 ± 0.253 µM and the IC50 (HCT-116) was 9.3 ± 0.201 µM.
